According to patent publication US6194411A, “3(2H)-pyridazinone derivatives and pharmaceutical compositions containing these compounds” (priority 1995, dated 2001):
Read-outs that look alike come from different tables or passages of the source.

Key:
[1] = system: phenylephrine-induced intraurethral hypertension; test: phenylephrine-induced intraurethral hypertension in anaesthetized cats; type: in vivo, cat; conditions: for ED50: Felis catus, phenylephrine 15 μg/kg/min intravenous, read-out: ED50 urethra (dose decreasing by 50% the hypertension induced by phenylephrine); for ED50 / D/U: ED50 (diastolic pressure)/ED50 (urethra): iv., anaesthetized cat; for D/U: ED50 (diastolic pressure)/ED50 (urethra): urogenital selectivity; for urogenital selectivity (in words): in vivo
From the text: (§1) In an in vivo animal model, in anaesthetized cat, intraurethral hypertension can be induced by α1 -adrenoceptor agonists [e.g. phenylephrine, which is chemically (-)-1-(3-hydroxyphenyl)-2-(methylamino)ethanol]. This hypertension-inducing effect can be antagonized by α1 -adrenoceptor antagonists. The antihypertensive effect is expressed by reduction of the diastolic pressure. Results of this experiment are summarized in Table 1 (the experiment is described in detail in the Pharmacological part).
^a Dose decreasing by 50% the hypertension induced by a 15 μg/kg/min
(§2) Effect on the intraurethral and diastolic blood pressure on anaesthetized cats
(§3) This investigation was performed according to the method of Lefevre et al. [Br. J. Pharmacol. 109, 1282 (1993)]. The essence of the method can be summarized as follows.
(§4) Cannules were introduced into the femoral artery and vein of pentobarbitone-anaesthetized, artificially ventilated cats of both sexes weighing 2.5 to 3.5 kg for administration of the compounds and measurement of blood pressure. The bladder was exposed by lower median laporotomy and a catheter was introduced into the urethra through the trigonum. The arterial and intraurethral pressures were registered on a Hellige polygraph by using a pressure transducer.
(§5) For excluding autonomic effects mediated not through α-adrenoceptors,mecamylamine, atropine and propranolol were administered intravenously in doses of 0.5, 0.75 and 0.5 mg/kg, respectively.
(§6) An increase in intraurethral and blood pressure was induced by phenylephrine infusion of 15 μg/kg/min; the change over the baseline pressure was considered to be 100%. The test substances were administered intravenously in 1-1000 μg/kg cumulative bolus doses. An interval of at least 5 minutes was allowed after each dose. The dose of α-antagonist inhibiting by 50% the phenylephrine-induced increase in urethral pressure ([…] uretha) as well as the dose […] by 50% the phenylephrine-induced diastolic total pressure elevation (ED50 diastolic value) were determined.

diastolic pressure = test: phenylephrine-induced diastolic blood pressure increase in anaesthetized cats; type: in vivo, cat; conditions: for ED50: Felis catus, iv., anaesthetized cat, phenylephrine 15 μg/kg/min, read-out: ED50 diastolic pressure (dose decreasing by 50% the diastolic total pressure increased by phenylephrine); for influence on other cardiovascular parameters (in words): doses that diminish the intraurethral pressure
From the text: as §1
^b Dose decreasing by 50% the diastolic total pressure increased by
as §2, §3, §4, §5, §6

[2] = system: α1-adrenoceptor (mesenteric artery); test: isolated organ: postsynaptic α1-adrenoceptor antagonism on mesenteric artery; design: species or system rat; conditions: agonist phenylephrine; 37° C; 30-minute incubation with antagonist
Method: (§7) In addition, investigations were performed on blood vessel and human hyperplasic prostate tissue preparations. In these experiments, a mesenteric artery was used as a model of resistance vessels which affect the blood pressure. We measured the extent of inhibition of the compounds of the invention and that of the reference drugs, respectively, on the contraction-inducing action of the α1 -agonist (phenylephrine).The α1 -adrenoceptor antagonism was then characterized by pA2 values.
(§8) α1 -Adrenoceptor antagonistic effect in isolated organ experiments
A) Investigation of postsynaptic α1 -adrenoceptors on the rate mesenteric artery
This test was performed according to the method of Angus et al. [J. Physiol.

[3] = target: T1, α1-adrenoceptor (human hyperplasic prostate tissue) (Homo sapiens, UniProt P35348); test: isolated organ: postsynaptic α1-adrenoceptor antagonism on human hyperplasic prostate tissue; conditions: agonist phenylephrine; 37° C; 30 minutes incubation with antagonist; read-out: pA2 human hyperplasic prostate tissue (converted)
T1 construct: Strips prepared from human hyperplasic prostate tissue; from tissue; host or cells: human hyperplastic prostate strips
T1 sequence (P35348 1-466): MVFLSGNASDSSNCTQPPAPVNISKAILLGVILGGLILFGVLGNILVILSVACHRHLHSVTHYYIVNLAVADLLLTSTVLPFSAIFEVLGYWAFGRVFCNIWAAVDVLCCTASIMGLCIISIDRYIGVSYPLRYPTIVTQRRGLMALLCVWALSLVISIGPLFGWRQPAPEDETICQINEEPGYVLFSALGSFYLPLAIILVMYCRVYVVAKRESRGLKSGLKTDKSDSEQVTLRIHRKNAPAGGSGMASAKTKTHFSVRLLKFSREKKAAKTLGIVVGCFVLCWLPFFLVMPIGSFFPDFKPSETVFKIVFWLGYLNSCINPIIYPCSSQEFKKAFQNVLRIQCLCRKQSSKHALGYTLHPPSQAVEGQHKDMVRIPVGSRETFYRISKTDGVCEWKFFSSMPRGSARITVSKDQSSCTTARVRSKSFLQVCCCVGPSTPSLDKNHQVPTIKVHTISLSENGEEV
Method: as §7, §8
(§9) B) Investigation of postsynaptic α1 -adrenoceptors on human prostate preparation
(§10) This test was performed according to the method of Scheu-Eei Yu et al. [Eur. J. Pharmacol. 252, 29 (1994)].
(§11) Strips prepared from human hyperplasic prostate tissue were suspended in a Krebs solution bubbled with carbogen at 37° C. A pre-tension of 1 g and an equilibration period of 1 hour were used. A dose-effect curve was established for phenylephrine. Then, after washing out and incubation with the antagonist for 30 minutes, the dose/effect curve was again determined. For characterizing the antagonistic effects, pA2 values were calculated.

[4] = system: α1-adrenoceptor (human hyperplasic prostate tissue); test: as above; conditions: for Selectivity (prostate/artery): antilogarithmic ratio of pA2 value, human prostate vs rat mesenteric artery; for α1-adrenoceptor antagonistic effect (in words): Table 2 data, prostate tissue and resistance artery
Method: as §7, §8, §9, §10, §11

[5] = target: T2, presynaptic α2-adrenoceptor (vas deferens) (Rattus norvegicus, UniProt P22909); test: presynaptic α2-adrenoceptor antagonism on rat vas deferens preparation; conditions: agonist xylazine, 35° C, electrically stimulated, read-out: pA2 presynaptic (converted)
T2 construct: Vas deferents were isolated from SPRD rats; from tissue; host or cells: vas deferens of SPRD rats, electrically stimulated
T2 sequence (P22909 1-465): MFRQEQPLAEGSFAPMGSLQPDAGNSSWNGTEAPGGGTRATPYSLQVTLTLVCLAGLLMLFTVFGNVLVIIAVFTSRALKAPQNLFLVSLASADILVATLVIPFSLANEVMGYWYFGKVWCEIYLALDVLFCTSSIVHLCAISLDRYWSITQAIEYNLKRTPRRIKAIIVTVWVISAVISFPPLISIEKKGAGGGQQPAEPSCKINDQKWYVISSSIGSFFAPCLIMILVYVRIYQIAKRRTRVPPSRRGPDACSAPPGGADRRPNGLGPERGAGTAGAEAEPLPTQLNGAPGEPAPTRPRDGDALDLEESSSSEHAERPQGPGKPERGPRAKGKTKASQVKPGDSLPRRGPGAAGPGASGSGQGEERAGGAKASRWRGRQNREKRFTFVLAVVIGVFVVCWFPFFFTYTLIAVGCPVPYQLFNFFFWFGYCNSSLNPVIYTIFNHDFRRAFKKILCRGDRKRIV
Method: (§12) The antagonism was characterized by the pA2 values.
Pre- and postsynaptic α1 -adrenoceptor antagonistic effects
A) Presynaptic α2 -adrenoceptor antagonism on the rat vas deference preparation
Briefly, the experiment was performed as follows.
Vas deferents were isolated from SPRD rats according to Vizi et al. [N. S. Arch. Pharmcol.
A dose/effect curve was determined for xylazine. Then, after washing out, the organ was incubated with the antagonist. The dose/effect curve was taken again with xylazine in the presence of the antagonist. The antagonism was characterized by the pA2 value determined according to the method of Arunlakshana and Schield [Br. J. Pharmcol.

[6] = target: T3, postsynaptic α2-adrenoceptor (vena saphena) (Canis lupus familiaris, UniProt A0A8I3Q7S8); test: postsynaptic α2-adrenoceptor antagonism in dog vena saphena preparation
T3 construct: Postsynaptic α2 -adrenoceptor antagonism in dog vena saphena preparation; from tissue; host or cells: dog saphenous vein
T3 sequence (A0A8I3Q7S8 1-427): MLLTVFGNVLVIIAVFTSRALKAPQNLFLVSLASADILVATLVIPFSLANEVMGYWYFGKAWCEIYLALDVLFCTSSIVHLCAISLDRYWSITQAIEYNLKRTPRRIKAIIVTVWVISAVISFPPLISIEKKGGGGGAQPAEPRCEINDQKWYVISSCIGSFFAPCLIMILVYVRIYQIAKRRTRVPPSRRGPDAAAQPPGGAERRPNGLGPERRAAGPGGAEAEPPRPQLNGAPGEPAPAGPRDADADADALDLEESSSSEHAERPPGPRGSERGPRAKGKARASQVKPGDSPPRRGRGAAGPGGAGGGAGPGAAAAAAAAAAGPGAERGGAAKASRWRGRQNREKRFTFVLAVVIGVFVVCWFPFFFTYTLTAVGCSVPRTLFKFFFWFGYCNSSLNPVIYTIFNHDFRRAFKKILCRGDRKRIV
Method: as §12
(§13) B) Postsynaptic α2 -adrenoceptor antagonism in dog vena saphena preparation
(§14) This investigation was carried out by the method of Fowler et al. [J. Pharmcol.
(§15) β-Adrenoceptors were inactivated with propranolol. […] After 30 minutes, the organs were incubated with the […] for 30 minutes. Also here, the antagonism was characterized by the pA2 values.

[7] = system: postsynaptic α2-adrenoceptor (vena saphena); test: as above; conditions: for selectivity toward the postsynaptic α2-receptors (in words) / α2-adrenoceptor antagonistic activity (in words): Table 3 data; for Selectivity postsynaptic/presynaptic: antilogarithmic ratio of pA2 values, dog vena saphena vs rat vas deferens
Method: as §12, §13, §14, §15

[8] = toxicity (statement, no test described)
[9] = background; cited from earlier work
[10] = dog vena saphena, agonist UK 14304, 30 minutes incubation, read-out: pA2 postsynaptic (converted)

Row | Compound | ED50 [1] [mg/kg] | D/U: ED50 (diastolic pressure)/ED50 (urethra) [1] | ED50 (diastolic pressure) [mg/kg] | pA2 rat mesenteric artery [2] | Kb [3] [nM] | Selectivity (prostate/artery) [4] | urogenital selectivity (in words) [1] | influence on other cardiovascular parameters (in words) (diastolic pressure) | α1-adrenoceptor antagonistic effect (in words) [4] | Kb [5] [nM] | Kb [6, 10] [nM] | selectivity toward the postsynaptic α2-receptors (in words) [7] | α2-adrenoceptor antagonistic activity (in words) [7] | Selectivity postsynaptic/presynaptic [7] | toxicity (in words) [8] | urogenital selectivity of available drugs (in words) [9] | Kb [6] [nM]
1 | O=c1cccnn1CCCNCC1COc2ccccc2O1 (racemic) [(3), 2-[3-([1,4]benzodioxan-2-ylmethylamino)-1-propyl]-3(2H)-pyridazinone, reference compound] | 0.0284 | 4.6 | 0.13 | 7.16 | 30.9 | 2.24 |  |  |  |  |  |  |  |  |  |  | 
2 | O=c1cccnn1CCCNC[C@@H]1COc2ccccc2O1 [(1), R-2-[3-([1,4]-benzodioxan-2-ylmethylamino)-1-propyl]-3(2H)-pyridazinone] | 0.0139 | > 63.9 | > 0.888 | 6.56 | 63.1 | 4.37 | significant urogenital selectivity | very weak influence only on other cardiovascular parameters | strong α1 -adrenoceptor antagonistic effect | 1550 | 13.5 | excellent selectivity toward the postsynaptic α2 -receptors | strong α2 -adrenoceptor antagonistic activity | 115.0 | low toxicity |  | 
3 | O=c1cccnn1CCCNC[C@H]1COc2ccccc2O1 [(2)] | 0.0034 | 26.5 | 0.09 | 7.68 | 5.89 | 3.55 | significant urogenital selectivity | very weak influence only on other cardiovascular parameters | strong α1 -adrenoceptor antagonistic effect | 155 | 7.24 | excellent selectivity toward the postsynaptic α2 -receptors | strong α2 -adrenoceptor antagonistic activity | 21.4 | low toxicity |  | 
4 | COc1cc2nc(N(C)CCCNC(=O)C3CCCO3)nc(N)c2cc1OC (stereo not shown) [Alfuzosin] |  |  |  | 8.60 |  |  |  |  |  |  |  |  |  |  |  |  | 
5 | COc1cc2nc(N3CCN(C(=O)c4ccco4)CC3)nc(N)c2cc1OC [Prazosin, reference compound] | 0.0187 | 1.3 | 0.025 |  |  |  |  |  |  |  |  |  |  |  |  | low or moderate | 
6 | COc1cc2nc(N3CCN(C(=O)C4CCCO4)CC3)nc(N)c2cc1OC (stereo not shown) [Terazosin] |  |  |  | 8.45 |  |  |  |  |  |  |  |  |  |  |  |  | 
7 | COC(=O)[C@@H]1[C@H]2C[C@H]3c4[nH]c5ccccc5c4CCN3C[C@@H]2CC[C@@H]1O [Yohimbine, reference compound] |  |  |  |  |  |  |  |  |  |  |  |  |  |  |  |  | 8.91
